# Measurements as given in ChEMBL document CHEMBL1201862, “PubChem BioAssay data set” (2004).
#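 Test compounds were applied to cells in 96-well plates for 48 hours at 5 doses. GI50: concentration for 50% inhibition of growth.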 The source made the active and inactive calls. No stated cut-off is given here; in the data, active = GI50 up to about 1.1 µM and inactive = higher.
# How the values were obtained:
# Test in all cases: NCI tumour cell line growth inhibition, 48 h
# SF-295 = tested on: SF-295
# PC-3 = tested on: PC-3
# ACHN = tested on: ACHN
# DU-145 = tested on: DU-145
# MDA-MB-435 = tested on: MDA-MB-435
# A549 = tested on: A549
# NCI-H23 = tested on: NCI-H23
# IGROV-1 = tested on: IGROV-1
# Malme-3M = tested on: Malme-3M
# OVCAR-4 = tested on: OVCAR-4
# CAKI-1 = tested on: CAKI-1
# RXF 393 = tested on: RXF 393
# U-251 = tested on: U-251
# SF-539 = tested on: SF-539
# MDA-N = tested on: MDA-N
# HOP-92 = tested on: HOP-92
# 786-0 = tested on: 786-0
# OVCAR-3 = tested on: OVCAR-3
# SR = tested on: SR
# EKVX = tested on: EKVX
# NCI/ADR-RES = tested on: NCI/ADR-RES
# TK-10 = tested on: TK-10
# MCF7 = tested on: MCF7
# OVCAR-5 = tested on: OVCAR-5
# UO-31 = tested on: UO-31
# HCT-15 = tested on: HCT-15
# COLO 205 = tested on: COLO 205
# MOLT-4 = tested on: MOLT-4
# Hs-578T = tested on: Hs-578T
# SF-268 = tested on: SF-268
# OVCAR-8 = tested on: OVCAR-8
# SK-MEL-5 = tested on: SK-MEL-5
# SK-MEL-28 = tested on: SK-MEL-28
# SK-MEL-2 = tested on: SK-MEL-2
# NCI-H522 = tested on: NCI-H522
# T47D = tested on: T47D
# SNB-75 = tested on: SNB-75
# BT-549 = tested on: BT-549
# HOP-62 = tested on: HOP-62
# LOX IMVI = tested on: LOX IMVI
# K562 = tested on: K562
# MDA-MB-231 = tested on: MDA-MB-231
# SN12C = tested on: SN12C
# HCT-116 = tested on: HCT-116
# SK-OV-3 = tested on: SK-OV-3
# NCI-H226 = tested on: NCI-H226
# A498 = tested on: A498
# HT-29 = tested on: HT-29
# KM12 = tested on: KM12
# M14 = tested on: M14
# CCRF-CEM = tested on: CCRF-CEM
# UACC-62 = tested on: UACC-62
# HCC 2998 = tested on: HCC 2998
# HL-60 = tested on: HL-60
# RPMI-8226 = tested on: RPMI-8226
# SNB-19 = tested on: SNB-19
# UACC-257 = tested on: UACC-257
# NCI-H460 = tested on: NCI-H460
# SW-620 = tested on: SW-620
compound,measurement,setting,value
CCN(CC)C(=O)CCN1CC1,GI50,SF-295,> 10 µM (inactive)
same,GI50,PC-3,> 10 µM (inactive)
same,GI50,ACHN,> 10 µM (inactive)
same,GI50,DU-145,> 10 µM (inactive)
same,GI50,MDA-MB-435,> 10 µM (inactive)
same,GI50,A549,> 10 µM (inactive)
same,GI50,NCI-H23,> 10 µM (inactive)
same,GI50,IGROV-1,> 10 µM (inactive)
same,GI50,Malme-3M,> 10 µM (inactive)
same,GI50,OVCAR-4,> 10 µM (inactive)
same,GI50,CAKI-1,> 10 µM (inactive)
same,GI50,RXF 393,> 10 µM (inactive)
same,GI50,U-251,> 10 µM (inactive)
same,GI50,SF-539,> 10 µM (inactive)
same,GI50,MDA-N,> 10 µM (inactive)
same,GI50,HOP-92,> 10 µM (inactive)
same,GI50,786-0,> 10 µM (inactive)
same,GI50,OVCAR-3,> 10 µM (inactive)
same,GI50,SR,> 10 µM (inactive)
same,GI50,EKVX,> 10 µM (inactive)
same,GI50,NCI/ADR-RES,> 10 µM (inactive)
same,GI50,TK-10,> 10 µM (inactive)
same,GI50,MCF7,> 10 µM (inactive)
same,GI50,OVCAR-5,> 10 µM (inactive)
same,GI50,UO-31,> 10 µM (inactive)
same,GI50,HCT-15,> 10 µM
same,GI50,COLO 205,> 10 µM (inactive)
same,GI50,MOLT-4,> 10 µM (inactive)
same,GI50,Hs-578T,> 10 µM (inactive)
same,GI50,SF-268,> 10 µM (inactive)
same,GI50,OVCAR-8,> 10 µM (inactive)
same,GI50,SK-MEL-5,> 10 µM (inactive)
same,GI50,SK-MEL-28,> 10 µM (inactive)
same,GI50,SK-MEL-2,> 10 µM (inactive)
same,GI50,NCI-H522,> 10 µM (inactive)
same,GI50,T47D,> 10 µM (inactive)
same,GI50,SNB-75,> 10 µM (inactive)
same,GI50,BT-549,> 10 µM (inactive)
same,GI50,HOP-62,> 10 µM (inactive)
same,GI50,LOX IMVI,> 10 µM (inactive)
same,GI50,K562,> 10 µM (inactive)
same,GI50,MDA-MB-231,> 10 µM (inactive)
same,GI50,SN12C,> 10 µM (inactive)
same,GI50,HCT-116,> 10 µM (inactive)
same,GI50,SK-OV-3,> 10 µM (inactive)
same,GI50,NCI-H226,> 10 µM (inactive)
same,GI50,A498,> 10 µM (inactive)
same,GI50,HT-29,> 10 µM (inactive)
same,GI50,KM12,> 10 µM (inactive)
same,GI50,M14,> 10 µM (inactive)
same,GI50,CCRF-CEM,> 10 µM (inactive)
same,GI50,UACC-62,> 10 µM (inactive)
same,GI50,HCC 2998,> 10 µM (inactive)
same,GI50,HL-60,> 10 µM (inactive)
same,GI50,RPMI-8226,> 10 µM (inactive)
same,GI50,SNB-19,> 10 µM (inactive)
same,GI50,UACC-257,> 10 µM (inactive)
same,GI50,NCI-H460,> 10 µM (inactive)
COc1cc([N+](=O)[O-])ccc1NC1=CC(=O)CCC1,GI50,SF-295,> 100 µM (inactive)
same,GI50,PC-3,> 100 µM (inactive)
same,GI50,ACHN,> 100 µM (inactive)
same,GI50,DU-145,> 100 µM (inactive)
same,GI50,MDA-MB-435,> 100 µM (inactive)
same,GI50,A549,> 100 µM (inactive)
same,GI50,NCI-H23,> 100 µM (inactive)
same,GI50,IGROV-1,> 100 µM (inactive)
same,GI50,Malme-3M,> 100 µM (inactive)
same,GI50,OVCAR-4,> 100 µM (inactive)
same,GI50,CAKI-1,49.5 µM (inactive)
same,GI50,RXF 393,> 100 µM (inactive)
same,GI50,U-251,> 100 µM (inactive)
same,GI50,SF-539,> 100 µM (inactive)
same,GI50,MDA-N,> 100 µM (inactive)
same,GI50,HOP-92,> 100 µM (inactive)
same,GI50,786-0,> 100 µM (inactive)
same,GI50,OVCAR-3,> 100 µM (inactive)
same,GI50,SR,> 100 µM (inactive)
same,GI50,EKVX,> 100 µM (inactive)
same,GI50,NCI/ADR-RES,> 100 µM (inactive)
same,GI50,TK-10,> 100 µM (inactive)
same,GI50,MCF7,> 100 µM (inactive)
same,GI50,OVCAR-5,> 100 µM (inactive)
same,GI50,UO-31,> 100 µM (inactive)
same,GI50,HCT-15,> 100 µM
same,GI50,COLO 205,> 100 µM (inactive)
same,GI50,MOLT-4,> 100 µM (inactive)
same,GI50,Hs-578T,> 100 µM (inactive)
same,GI50,SF-268,> 100 µM (inactive)
same,GI50,OVCAR-8,> 100 µM (inactive)
same,GI50,SK-MEL-5,> 100 µM (inactive)
same,GI50,SK-MEL-28,59.4 µM (inactive)
same,GI50,SW-620,> 100 µM (inactive)
same,GI50,SK-MEL-2,> 100 µM (inactive)
same,GI50,T47D,> 100 µM (inactive)
same,GI50,SNB-75,27.6 µM (inactive)
same,GI50,BT-549,> 100 µM (inactive)
same,GI50,HOP-62,> 100 µM (inactive)
same,GI50,LOX IMVI,> 100 µM (inactive)
same,GI50,K562,> 100 µM (inactive)
same,GI50,MDA-MB-231,> 100 µM (inactive)
same,GI50,SN12C,> 100 µM (inactive)
same,GI50,HCT-116,> 100 µM (inactive)
same,GI50,SK-OV-3,> 100 µM (inactive)
same,GI50,NCI-H226,> 100 µM (inactive)
same,GI50,A498,> 100 µM (inactive)
same,GI50,HT-29,> 100 µM (inactive)
same,GI50,KM12,> 100 µM (inactive)
same,GI50,M14,> 100 µM (inactive)
same,GI50,CCRF-CEM,> 100 µM (inactive)
same,GI50,UACC-62,> 100 µM (inactive)
same,GI50,HCC 2998,> 100 µM (inactive)
same,GI50,HL-60,> 100 µM (inactive)
same,GI50,RPMI-8226,> 100 µM (inactive)
same,GI50,SNB-19,> 100 µM (inactive)
same,GI50,UACC-257,> 100 µM (inactive)
same,GI50,NCI-H460,> 100 µM (inactive)
Cn1cc(S(=O)(=O)NC(=O)Nc2ccc(Cl)cc2)c2ccccc21,GI50,SF-295,43.6 µM (inactive)
same,GI50,PC-3,43.9 µM (inactive)
same,GI50,ACHN,25.4 µM (inactive)
same,GI50,DU-145,49.2 µM (inactive)
same,GI50,MDA-MB-435,52.1 µM (inactive)
same,GI50,A549,63.4 µM (inactive)
same,GI50,NCI-H23,> 100 µM (inactive)
same,GI50,IGROV-1,13.3 µM (inactive)
same,GI50,Malme-3M,> 100 µM (inactive)
same,GI50,OVCAR-4,> 100 µM (inactive)
same,GI50,CAKI-1,15.5 µM (inactive)
same,GI50,RXF 393,> 100 µM (inactive)
same,GI50,U-251,41.9 µM (inactive)
same,GI50,SF-539,11.1 µM (inactive)
same,GI50,MDA-N,27.4 µM (inactive)
same,GI50,HOP-92,> 100 µM (inactive)
same,GI50,786-0,> 100 µM (inactive)
same,GI50,OVCAR-3,> 100 µM (inactive)
same,GI50,SR,> 100 µM (inactive)
same,GI50,EKVX,> 100 µM (inactive)
same,GI50,NCI/ADR-RES,38.6 µM (inactive)
same,GI50,TK-10,21.4 µM (inactive)
same,GI50,MCF7,56 µM (inactive)
same,GI50,OVCAR-5,46.1 µM (inactive)
same,GI50,UO-31,44.8 µM (inactive)
same,GI50,HCT-15,4.5 µM
same,GI50,COLO 205,30.3 µM (inactive)
same,GI50,MOLT-4,> 100 µM (inactive)
same,GI50,Hs-578T,> 100 µM (inactive)
same,GI50,SF-268,> 100 µM (inactive)
same,GI50,OVCAR-8,82.2 µM (inactive)
same,GI50,SK-MEL-5,73.5 µM (inactive)
same,GI50,SK-MEL-28,> 100 µM (inactive)
same,GI50,SW-620,50.6 µM (inactive)
same,GI50,SK-MEL-2,54.7 µM (inactive)
same,GI50,NCI-H522,24.5 µM (inactive)
same,GI50,T47D,28.6 µM (inactive)
same,GI50,SNB-75,> 100 µM (inactive)
same,GI50,BT-549,> 100 µM (inactive)
same,GI50,HOP-62,15.1 µM (inactive)
same,GI50,LOX IMVI,93.1 µM (inactive)
same,GI50,K562,> 100 µM (inactive)
same,GI50,MDA-MB-231,> 100 µM (inactive)
same,GI50,SN12C,> 100 µM (inactive)
same,GI50,HCT-116,32.4 µM (inactive)
same,GI50,SK-OV-3,55.5 µM (inactive)
same,GI50,NCI-H226,83.8 µM (inactive)
same,GI50,A498,> 100 µM (inactive)
same,GI50,HT-29,> 100 µM (inactive)
same,GI50,KM12,28.5 µM (inactive)
same,GI50,M14,> 100 µM (inactive)
same,GI50,CCRF-CEM,> 100 µM (inactive)
same,GI50,UACC-62,12.4 µM (inactive)
same,GI50,HCC 2998,51.4 µM (inactive)
same,GI50,HL-60,> 100 µM (inactive)
same,GI50,RPMI-8226,> 100 µM (inactive)
same,GI50,SNB-19,> 100 µM (inactive)
same,GI50,UACC-257,> 100 µM (inactive)
same,GI50,NCI-H460,57.4 µM (inactive)
